The source of these data is article PMC4687871, “Delphinidin Inhibits Tumor Growth by Acting on VEGF Signalling in Endothelial Cells” (PLoS ONE, 2015).

Data set [1] relates to CREB. Put plainly: CREB phosphorylation in HUVECs (Western blot). The note with it: 30 min. Format: cell-based, human. As for the experimental part:
(§1) HUVECs (9,000 cells per dish of 3.5 cm diameter) were seeded on petri dishes in high serum culture medium and allowed to attach for 4–5 h. The 20% serum medium was then replaced by 1% HS medium. […] Appropriate quantities of extracted proteins were resolved in a SDS-10% polyacrylamide gel and electro transferred onto PVDF membranes, as described previously. […] Immobilized antigens were detected by chemiluminescence using HRP-conjugates as secondary antibodies (1/60,000), an ECL assay kit and autoradiography films. Autoradiography signals were captured on a GeneGenius Bio Imaging System (Syngene) using the GeneSnap software and analyzed using the GeneTools software. […] Immobilized antigens were detected as described above.
For orientation: In western blotting, separated proteins are transferred to a membrane and probed.

Data set [2] concerns VEGFR2. Put plainly: VEGFR2 expression and phosphorylation in HUVECs (Western blot). Format: cell-based, human. On the procedure:
(§2) HUVECs and B16-F10 cells were treated with delphinidin (10 μg/ml) for 3 h and then incubated without or with VEGF (10 ng/ml) for 30 min for VEGFR2 phosphorylation or 24 h for VEGFR2 expression. Then, the cells were […], washed twice with PBS and trypsinized. The cells were lysed with RIPA buffer freshly in presence of protease inhibitor. Cells were allowed to lyse for 45 min on ice and centrifuged at 15000 g for 15 min at 4°C. The supernatant was […], and protein concentrations in the supernatant were determined by protein assay.
(§3) The proteins (30 μg) were separated on 10% sodium dodecyl sulfate-polyacrylamide gel electrophoresis (SDS-PAGE) and transferred on the nitrocellulose membranes. The membranes were incubated with anti-VEGFR2 or anti-pVEGFR2. The anti-β-actin (Sigma-Aldrich) was used to visualize protein gel loading. The membranes were then incubated with appropriate HRP-conjugated secondary antibody. The protein-antibody complexes were detected by chemiluminescence using the Western Blotting Luminol reagent kit (Santa Cruz Biotechnology®).

Data set [3] deals with B16-F10 melanoma cells. Put plainly: Melanoma cell proliferation (CyQUANT). It is filed as cell-based, mouse. The note with it: 24, 48 and 72 h. On the procedure:
B16-F10 (5,000 cells per well) were seeded on 96-multiwell plates in completed medium and allowed to attach overnight. […] Proliferation was determined at 24 h, 48 h and 72 h by a fluorimetric assay using the CyQUANT Cell Proliferation Assay Kit (Molecular Probes, Eugene, OR). After growth medium removal, dye-binding solution was added into each microplate well and cells were incubated at 37°C for 45 minutes. The fluorescence levels were read on a fluorescent microplate reader (Synergy HT, Biotek, Winooski, VT) with filters for 485 nm excitation and 530 nm emission.

Data set [4] is described as follows: Mouse weight during xenograft experiment. Format: in vivo. The note with it: 10 mg/kg i.p. once a week for 3 weeks; over 30 days; vs non-treated mice. On the procedure:
(§4) Two groups of 7 male C57BL/6N mice were used at 6 weeks old for tumor induction. The experimental protocol is illustrated on in Fig 1A. Before any treatments, mouse weights were registered on day 1 (D1). On the following day (D2), all mice were subcutaneously injected on the ventral side near each hindleg with B16-F10 melanoma cells (25x10^4 cells in 100 μl of 0.9% NaCl). The seventh day after tumor cell inoculation (D9), mice were treated by i.p. injection (100 μl/10 g mice) with either drug solvent (1% ethanol) or 10 mg delphinidin/kg. Delphinidin as well as solvent injections were repeated twice at 7-day intervals (D16 and D23). Then, seven days later (D30) after pentobarbital anesthesia, mice were sacrificed by cervical dislocation and tumors were dissected and weighted.

In data set [5] the test system is B16-F10 melanoma cell xenograft. In words: Tumor growth induced by B16-F10 melanoma cell xenograft in mice. It is filed as in vivo, mouse. The note with it: 10 mg/kg i.p. once a week for 3 weeks; 30th day; vs vehicle-treated mice. As for the experimental part: as §4
Data set [6] relates to human NSCLC cells. The arrangement: method as in PMID 24124611. The note with it: athymic nude mice subcutaneously implanted with human NSCLC cells; vs control mice; cited from earlier work.
The subject of data set [7] is VEGFR2. In words: VEGFR2 expression and phosphorylation in B16-F10 cells (Western blot). It is filed as cell-based, mouse. As for the experimental part: as §2, §3
The subject of data set [8] is p38 MAP kinase. Put plainly: p38 MAP kinase activation in HUVECs (Western blot). It is filed as cell-based, human. The note with it: delphinidin 10 μg/ml; 30 min. On the procedure: as §1
For data set [9], the system named is PDE1. Put plainly: Purified PDE radio-enzymatic assay, PDE1. Format: biochemical, bovine. The note with it: substrate 1 μM cGMP, preliminarily reported in ref 26. As for the experimental part:
(§5) PDE1, PDE3, PDE4 and PDE5 were isolated by anion-exchange chromatography from bovine aortic smooth muscle cytosolic fraction as previously described. PDE2 was isolated from human platelets. Purified PDEs were stored as aliquots at -80°C until use. PDE activity was determined by a radio-enzymatic assay as described previously. The concentration of delphinidin that produced 50% inhibition (IC50) of substrate hydrolysis (determined at 1μM cAMP or cGMP) was calculated by non-linear regression analysis (GraphPad Prism, San Diego, CA) of concentration-response curves performed with 1–300 μM of delphinidin and included 6 different concentrations of delphinidin.

For data set [10], the target named is T1, PDE2 (Homo sapiens, UniProt O00408).
T1 construct: PDE2 was isolated from human platelets; from tissue; host or cells: human platelets
T1 sequence (O00408 whole entry): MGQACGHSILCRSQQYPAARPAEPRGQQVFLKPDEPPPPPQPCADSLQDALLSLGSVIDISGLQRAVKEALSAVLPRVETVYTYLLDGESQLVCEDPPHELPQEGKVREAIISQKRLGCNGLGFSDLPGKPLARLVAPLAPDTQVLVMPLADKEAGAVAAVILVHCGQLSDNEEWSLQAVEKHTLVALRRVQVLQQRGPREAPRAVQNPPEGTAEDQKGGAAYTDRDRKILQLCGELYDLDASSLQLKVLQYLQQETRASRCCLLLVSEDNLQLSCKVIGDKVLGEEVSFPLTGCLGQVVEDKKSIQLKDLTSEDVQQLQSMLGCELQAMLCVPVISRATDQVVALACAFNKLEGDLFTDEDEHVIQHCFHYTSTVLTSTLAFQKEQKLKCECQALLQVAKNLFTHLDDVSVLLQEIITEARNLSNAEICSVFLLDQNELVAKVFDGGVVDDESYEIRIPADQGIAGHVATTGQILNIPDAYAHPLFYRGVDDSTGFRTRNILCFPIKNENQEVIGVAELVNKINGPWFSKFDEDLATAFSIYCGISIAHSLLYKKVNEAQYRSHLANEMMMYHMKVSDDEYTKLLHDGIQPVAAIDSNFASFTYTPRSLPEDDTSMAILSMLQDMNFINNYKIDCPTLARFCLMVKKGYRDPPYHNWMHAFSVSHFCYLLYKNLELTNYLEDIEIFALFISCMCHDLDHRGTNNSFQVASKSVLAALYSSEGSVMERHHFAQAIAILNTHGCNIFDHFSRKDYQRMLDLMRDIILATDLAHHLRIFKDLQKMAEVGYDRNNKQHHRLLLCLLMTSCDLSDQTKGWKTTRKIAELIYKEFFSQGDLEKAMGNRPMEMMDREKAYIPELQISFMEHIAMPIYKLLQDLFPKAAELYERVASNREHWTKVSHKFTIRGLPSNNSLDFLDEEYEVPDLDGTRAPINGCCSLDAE
Put plainly: Purified PDE radio-enzymatic assay, PDE2. The note with it: substrate 1 μM cAMP, preliminarily reported in ref 26. Format: biochemical. On the procedure: as §5

Data set [11] has as its system ATF1. In words: ATF1 phosphorylation in HUVECs (Western blot). Format: cell-based, human. The note with it: delphinidin 10 μg/ml, 30 min. On the procedure:
as §1

Data set [12] deals with T2, PDE5 (Bos taurus, UniProt Q28156).
T2 construct: isolated by anion-exchange chromatography from bovine aortic smooth muscle cytosolic fraction; from tissue; host or cells: bovine aortic smooth muscle, cytosolic fraction
In words: Purified PDE radio-enzymatic assay, PDE5. Format: biochemical, bovine. The conditions noted are these: substrate 1 μM cGMP; preliminarily reported in ref 26. As for the experimental part:
as §5

The test system of data set [13] is PDE4. Put plainly: Purified PDE radio-enzymatic assay, PDE4. Format: biochemical, bovine. The note with it: substrate 1 μM cAMP; preliminarily reported in ref 26. As for the experimental part:
as §5

In data set [14] the test system is HUVECs. In words: Endothelial cell proliferation (CellTiter 96 AQueous One). The conditions noted are these: for change of VEGF-induced proliferation: delphinidin 10 μg/ml + VEGF 10 ng/ml; for change of rate of basal proliferation: delphinidin 10 μg/ml, 1% human serum. Format: cell-based, human. As for the experimental part:
HUVECs (12,000 cells per well) were seeded on 24-multiwell plates, or in the case of VEGFR2 studies HUVECs (10000 cells per well) were seeded on 96-multiwell plates, in high serum culture medium and allowed to attach for 4–5 h. The 20% serum medium was then replaced by 1% HS medium. After 24 h incubation, medium was removed and replaced with 500 μl /well or 280 μl/well (for VEGFR2 studies) of 1% HS medium containing tested substances. Cells were pre-treated with or without a MEK1/2 MAP kinase inhibitor (U-0126, 10 μM) or a PI3 kinase inhibitor (LY-294002, 10 μM), then treated with or without 10 ng/ml of VEGF, in presence or in absence of 10 μg/ml delphinidin. Cells were allowed to proliferate for 3 days and HUVEC proliferation was determined at 24 h, 48 h, and 72 h by a colorimetric assay using the ‘CellTiter 96 AQeous One Solution Cell Proliferation Assay’ from Promega.
Cells were pre-treated with or without a VEGFR2 specific inhibitor (Ki8751, 10 nM), then treated with or without 10 ng /ml in presence or absence of 10 μg/ml delphinidin. Cells were allowed to proliferate for 2 days and HUVECs proliferation was determined at 24 h and 48 h by a colorimetric assay using the ‘CellTiter 96 AQeous One Solution Cell proliferation Assay’ from Promega.

Values joined by “and” are separate entries in the source; they are usually repeats but may differ in a detail not shown here. Identical values can stand only once.

In general, IC50 refers to the point on the concentration scale where inhibition reaches its midpoint. Consider `Oc1cc(O)c2cc(O)c(-c3cc(O)c(O)c(O)c3)[o+]c2c1` [delphinidin, Delphinidin], for which the “increase of CREB phosphorylation induced by VEGF” value in [1] (delphinidin 10 μg/ml + VEGF 10 ng/ml) is listed as “completely prevented”. In addition, the CREB phosphorylation result in [1] (delphinidin 10 μg/ml alone) is given as “no significant effect”. In data set [2] (delphinidin 10 μg/ml 3 h, then VEGF 10 ng/ml 30 min), the “ability of VEGF in increasing VEGFR2 phosphorylation” value is recorded as “completely prevented”. In data set [2] (delphinidin 10 μg/ml 3 h, then VEGF 10 ng/ml 24 h), the “ability of VEGF in increasing VEGFR2 expression” value is “completely prevented”. Besides, the VEGFR2 expression entry in data set [2] (delphinidin 10 μg/ml alone) is on record as “no effect”. For the same compound, the VEGFR2 phosphorylation entry in data set [2] (delphinidin 10 μg/ml alone) is listed as “no effect”. In addition, the B16-F10 proliferation entry in [3] (delphinidin 10 μg/ml) is on record as “did not inhibit”. Besides, in data set [4], the “mouse weight as a percent of the starting weight” value is “unchanged”. Further, the “decrease of tumor weight” value in data set [5] is listed as 83%. For the same compound, in data set [6], the tumor growth entry is listed as “significant inhibition”. Moreover, in data set [7] (delphinidin 10 μg/ml 3 h, then VEGF 30 min), the “VEGF-dependent VEGFR2 phosphorylation” value was “inhibited”. In addition, in data set [8], the “basal p38 MAP kinase activation” value is reported as “did not affect”. Further, the IC50 in data set [9] (+CaM/Ca) was 15 ± 3 µM; in [9] (no regulator), 33 ± 6 µM; in [10] (+5μM cGMP), 19.8 µM and 18 µM; in data set [10] (no regulator) it was 115 µM and 103 µM; in [12], 49.5 µM and 44 µM; in data set [13], 109 ± 12 µM. Also, the “IC50 PDE1” value in data set [9] (+CaM/Ca) worked out at 5 ± 1 µg/mL; in data set [9] (no regulator), 11 ± 2 µg/mL. Also, the “phosphorylation of ATF1” value in [11] (after stimulation by VEGF 10 ng/ml) and in data set [11] (control conditions) was “abolished” throughout. Moreover, the “IC50 PDE4” value in data set [13] was determined as 37 ± 4 µg/mL. Besides, the figures for the “change of VEGF-induced proliferation” value in [14] (24 h), in data set [14] (48 h) and in data set [14] (72 h) were -56%, -85% and -130%, respectively. The “change of rate of basal proliferation” value in [14] (24 h) is listed as -52%; in [14] (48 h), -66%; in data set [14] (72 h), -70%.
With `O=c1cc(N2CCOCC2)oc2c(-c3ccccc3)cccc12` [LY-294002, 2-(4-Morpholinyl)-8-phenyl-4H-1-benzopyran-4-one, reference compound], the “effect on the inhibitory effect of delphinidin on basal proliferation” value in [14] (LY-294002 10 μM + delphinidin 10 μg/ml) was “completely blunted”. The “increase of basal proliferation” value in [14] (LY-294002 10 μM, 72 h) is listed as “not at 72 h”.
Consider `N#CC(=C(N)Sc1ccccc1N)C(C#N)=C(N)Sc1ccccc1N` [U-0126, 1,4-diamino-2,3-dicyano-1,4-bis(2-aminophenylthio)-butadiene, reference compound], for which the “proliferation rate (% of control)” value in [14] (U-0126 10 μM + VEGF 10 ng/ml, 72 h, n.s. vs control) is reported as 131%. In addition, in data set [14] (U-0126 10 μM + delphinidin 10 μg/ml), the “effect on the inhibitory effect of delphinidin on basal proliferation” value was “reversed to some extent closer to basal level”.
Turning to VEGF, the “increase of CREB phosphorylation” value in data set [1] (VEGF 10 ng/ml) is recorded as “+484%”. In addition, the VEGFR2 phosphorylation result in data set [2] (VEGF 10 ng/ml 30 min) and in [7] (VEGF 10 ng/ml 30 min) was “increased” throughout. Further, the VEGFR2 expression entry was “increased” in data set [2] (VEGF 10 ng/ml 24 h) and “did not modify” in [7] (VEGF 10 ng/ml). Besides, the “B16-F10 melanoma cell proliferation” value in data set [3] (VEGF 10 ng/ml) was “not able increase”.
In the case of `COc1cc2nccc(Oc3ccc(NC(=O)Nc4ccc(F)cc4F)c(F)c3)c2cc1OC` [Ki8751, reference compound], in data set [14] (Ki8751 10 nM + VEGF, 24 and 48 h), the “ability of VEGF to increase endothelial cell proliferation” value was “completely abolished”.
